Reference: PubChem BioAssay (NCI)
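1) Cells in 96-well plates. 2) Compound, 48 h, 5 concentrations. 3) Linear interpolation between surrounding doses. 4) Unreached endpoint = highest concentration. At the GI50, growth is halved. TGI: concentration producing complete growth inhibition.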

Legend:
Experiment in all cases: NCI-60 cell line screen, 48 h
[1] = system: U251 CNS
[2] = system: 786-0 renal
[3] = system: TK-10 renal
[4] = system: RXF 393 renal
[5] = system: NCI-H460 lung
[6] = system: NCI-H23 lung
[7] = system: SN12C renal
[8] = system: MDA-MB-231 breast
[9] = system: NCI-H226 lung
[10] = system: MDA-MB-435
[11] = system: MCF7 breast
[12] = system: LOX IMVI melanoma
[13] = system: CCRF-CEM leukemia
[14] = system: UO-31 renal
[15] = system: RPMI-8226 leukemia
[16] = system: SF-295 CNS
[17] = system: HOP-92 NSCLC
[18] = system: NCI-H522 lung
[19] = system: T-47D breast
[20] = system: OVCAR-5 ovarian
[21] = system: SK-MEL-5 melanoma
[22] = system: KM12 colon
[23] = system: BT-549 breast
[24] = system: HS 578T breast
[25] = system: SF-539 CNS
[26] = system: A498 renal
[27] = system: IGROV1 ovarian
[28] = system: HL-60(TB) leukemia
[29] = system: SNB-75 CNS
[30] = system: SF-268 CNS
[31] = system: OVCAR-8 ovarian
[32] = system: K-562 leukemia
[33] = system: NCI/ADR-RES ovarian
[34] = system: COLO 205 colon
[35] = system: HCT-116 colon
[36] = system: HT29 colon
[37] = system: OVCAR-4 ovarian
[38] = system: M14 melanoma
[39] = system: SK-OV-3 ovarian
[40] = system: SNB-19 CNS
[41] = system: SK-MEL-2 melanoma
[42] = system: SW-620 colon
[43] = system: MALME-3M melanoma
[44] = system: MOLT-4 leukemia
[45] = system: UACC-62 melanoma
[46] = system: A549 NSCLC
[47] = system: HCT-15 colon
[48] = system: CAKI-1 renal
[49] = system: HOP-62 NSCLC
[50] = system: UACC-257 melanoma
[51] = system: DU-145 prostate
[52] = system: OVCAR-3 ovarian
[53] = system: HCC-2998 colon
[54] = system: PC-3 prostate
[55] = system: SR leukemia
[56] = system: ACHN renal
[57] = system: SK-MEL-28 melanoma

How did the GI50 [1] turn out when `CCN1C(=O)c2ccc3c4c(ccc(c24)C1=O)C(=O)N(CCCNCc1ccccc1OC)C3=O` was run?
The GI50 was 1250 nM.

What about the TGI [1] of the same molecule?
Its TGI is 3320 nM.

What about the GI50 [2] of the same molecule?
The GI50 was 1330 nM.

What about the TGI [2] of the same molecule?
Its TGI is 5880 nM.

And the GI50 [3]?
The GI50 was 2520 nM.

What about the TGI [3] of the same molecule?
The TGI was 7600 nM.

What about the GI50 [4] of the same molecule?
The GI50 was 671 nM.

And the TGI [4]?
Its TGI is 2040 nM.

And the GI50 [5]?
The GI50 was 437 nM.

And the TGI [5]?
Its TGI is 2090 nM.

What about the GI50 [6] of the same molecule?
Its GI50 is 782 nM.

What about the TGI [6] of the same molecule?
Its TGI is 3680 nM.

And the GI50 [7]?
The GI50 was 327 nM.

What about the TGI [7] of the same molecule?
Its TGI is 1320 nM.

What about the GI50 [8] of the same molecule?
The GI50 was 791 nM.

What about the TGI [8] of the same molecule?
Its TGI is 9310 nM.

And the GI50 [9]?
The GI50 was 1280 nM.

And the TGI [9]?
Its TGI is 2770 nM.

What about the GI50 [10] of the same molecule?
Its GI50 is 173 nM.

What about the TGI [10] of the same molecule?
The TGI was 322 nM.

And the GI50 [11]?
Its GI50 is 205 nM.

And the TGI [11]?
Its TGI is 584 nM.

What about the GI50 [12] of the same molecule?
The GI50 was 314 nM.

What about the TGI [12] of the same molecule?
Its TGI is 1310 nM.

What about the GI50 [13] of the same molecule?
Its GI50 is 793 nM.

What about the TGI [13] of the same molecule?
Its TGI is 9410 nM.

And the GI50 [14]?
The GI50 was 1390 nM.

And the TGI [14]?
Its TGI is 3580 nM.

And the GI50 [15]?
Its GI50 is 1640 nM.

What about the TGI [15] of the same molecule?
The TGI was 5530 nM.

And the GI50 [16]?
The GI50 was 377 nM.

What about the TGI [16] of the same molecule?
The TGI was 1370 nM.

And the GI50 [17]?
The GI50 was 2600 nM.

And the TGI [17]?
Its TGI is 5500 nM.

What about the GI50 [18] of the same molecule?
The GI50 was 1190 nM.

And the TGI [18]?
The TGI was 2680 nM.

And the GI50 [19]?
Its GI50 is 1000 nM.

What about the TGI [19] of the same molecule?
Its TGI is 3290 nM.

What about the GI50 [20] of the same molecule?
Its GI50 is 1350 nM.

And the TGI [20]?
The TGI was 3740 nM.

And the GI50 [21]?
The GI50 was 164 nM.

And the TGI [21]?
The TGI was 319 nM.

What about the GI50 [22] of the same molecule?
Its GI50 is 630 nM.

What about the TGI [22] of the same molecule?
The TGI was 3750 nM.

What about the GI50 [23] of the same molecule?
The GI50 was 1480 nM.

What about the TGI [23] of the same molecule?
The TGI was 2940 nM.

What about the GI50 [24] of the same molecule?
The GI50 was 2210 nM.

What about the TGI [24] of the same molecule?
The TGI was 8350 nM.

What about the GI50 [25] of the same molecule?
Its GI50 is 1160 nM.

What about the TGI [25] of the same molecule?
Its TGI is 2470 nM.

And the GI50 [26]?
Its GI50 is 383 nM.

And the TGI [26]?
The TGI was 1990 nM.

What about the GI50 [27] of the same molecule?
Its GI50 is 1280 nM.

And the TGI [27]?
The TGI was 4370 nM.

What about the GI50 [28] of the same molecule?
Its GI50 is 1110 nM.

And the TGI [28]?
The TGI was 3600 nM.

What about the GI50 [29] of the same molecule?
The GI50 was 1570 nM.

And the TGI [29]?
The TGI was 3010 nM.

And the GI50 [30]?
The GI50 was 1150 nM.

And the TGI [30]?
The TGI was 5750 nM.

What about the GI50 [31] of the same molecule?
The GI50 was 438 nM.

What about the TGI [31] of the same molecule?
Its TGI is 2870 nM.

And the GI50 [32]?
Its GI50 is 936 nM.

And the TGI [32]?
Its TGI is 4270 nM.

What about the GI50 [33] of the same molecule?
The GI50 was 1040 nM.

And the TGI [33]?
Its TGI is 5960 nM.

What about the GI50 [34] of the same molecule?
Its GI50 is 201 nM.

And the TGI [34]?
The TGI was 382 nM.

What about the GI50 [35] of the same molecule?
Its GI50 is 329 nM.

And the TGI [35]?
The TGI was 1140 nM.

And the GI50 [36]?
Its GI50 is 404 nM.

And the TGI [36]?
The TGI was 3670 nM.

What about the GI50 [37] of the same molecule?
The GI50 was 152 nM.

And the TGI [37]?
The TGI was 345 nM.

What about the GI50 [38] of the same molecule?
The GI50 was 690 nM.

And the TGI [38]?
Its TGI is 2100 nM.

What about the GI50 [39] of the same molecule?
Its GI50 is 2280 nM.

And the TGI [39]?
Its TGI is 7040 nM.

What about the GI50 [40] of the same molecule?
Its GI50 is 1330 nM.

And the TGI [40]?
Its TGI is 2970 nM.

What about the GI50 [41] of the same molecule?
Its GI50 is 1550 nM.

And the TGI [41]?
The TGI was 3480 nM.

What about the GI50 [42] of the same molecule?
Its GI50 is 362 nM.

And the TGI [42]?
The TGI was 1770 nM.

What about the GI50 [43] of the same molecule?
The GI50 was 186 nM.

What about the TGI [43] of the same molecule?
The TGI was 391 nM.

What about the GI50 [44] of the same molecule?
Its GI50 is 891 nM.

And the TGI [44]?
Its TGI is 4370 nM.

And the GI50 [45]?
The GI50 was 468 nM.

And the TGI [45]?
The TGI was 1630 nM.

And the GI50 [46]?
The GI50 was 780 nM.

And the TGI [46]?
Its TGI is 2490 nM.

What about the GI50 [47] of the same molecule?
Its GI50 is 291 nM.

And the TGI [47]?
The TGI was 1070 nM.

And the GI50 [48]?
The GI50 was 791 nM.

What about the TGI [48] of the same molecule?
Its TGI is 2470 nM.

What about the GI50 [49] of the same molecule?
The GI50 was 925 nM.

What about the TGI [49] of the same molecule?
The TGI was 2780 nM.

And the GI50 [50]?
The GI50 was 264 nM.

What about the TGI [50] of the same molecule?
The TGI was 880 nM.

And the GI50 [51]?
The GI50 was 1220 nM.

What about the TGI [51] of the same molecule?
The TGI was 2500 nM.

And the GI50 [52]?
Its GI50 is 335 nM.

What about the TGI [52] of the same molecule?
The TGI was 1040 nM.

What about the GI50 [53] of the same molecule?
Its GI50 is 632 nM.

What about the TGI [53] of the same molecule?
Its TGI is 1890 nM.

What about the GI50 [54] of the same molecule?
Its GI50 is 613 nM.

What about the TGI [54] of the same molecule?
Its TGI is 5180 nM.

And the GI50 [55]?
The GI50 was 466 nM.

What about the TGI [55] of the same molecule?
Its TGI is 6300 nM.

What about the GI50 [56] of the same molecule?
The GI50 was 553 nM.

And the TGI [56]?
The TGI was 4630 nM.

And the GI50 [57]?
Its GI50 is 1580 nM.

What about the TGI [57] of the same molecule?
Its TGI is 3240 nM.
